Consider 14 compounds from patent publication US20110065694A1 (priority 2009, published 2011).

Molecules are shown by their SMILES.

In one assay the target is human histamine H3 receptor (Homo sapiens, UniProt Q9Y5N1). Briefly: H3 GTPγS assay (SPA method), histamine H3 in vitro assay.
Chain of human histamine H3 receptor (Q9Y5N1 whole entry): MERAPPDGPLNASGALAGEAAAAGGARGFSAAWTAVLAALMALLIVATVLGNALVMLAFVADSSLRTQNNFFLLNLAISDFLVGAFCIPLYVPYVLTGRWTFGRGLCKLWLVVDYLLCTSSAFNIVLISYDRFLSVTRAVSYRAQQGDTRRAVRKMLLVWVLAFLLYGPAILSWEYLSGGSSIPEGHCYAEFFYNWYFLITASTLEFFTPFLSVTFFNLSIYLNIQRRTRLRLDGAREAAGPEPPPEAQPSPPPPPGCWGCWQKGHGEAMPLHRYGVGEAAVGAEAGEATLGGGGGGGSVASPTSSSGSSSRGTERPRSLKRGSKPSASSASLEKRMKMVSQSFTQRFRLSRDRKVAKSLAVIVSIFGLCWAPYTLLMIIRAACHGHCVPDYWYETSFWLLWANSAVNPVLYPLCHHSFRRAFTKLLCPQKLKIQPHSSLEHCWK
Conditions: not given
Type of assay: biochemical. Here is the method: Briefly, cells expressing the human histamine H3 receptor were homogenized in 15 mM Tris-HCl pH 7.5, 2 mM MgCl2, 0.3 mM EDTA, and 1 mM EGTA. […] Membranes were frozen in liquid nitrogen until use. On the day of the assay, membranes were thawed and diluted in assay buffer (20 mM HEPES pH 7.4, 100 mM NaCl, 10 μg/ml saponin, 1 mM MgCl2) to give 500 μg/ml and mixed (v/v) with GDP in assay buffer for a final GDP concentration of 10 μM and incubated on ice for at least […]. PVT-WGA beads (Amersham, RPNQ001) were diluted in assay buffer at 50 mg/mL and mixed with GTPγ[^35S] (Amersham, SJ1308) diluted in assay buffer to give ˜25,000 dpm/10 μL and mixed vol/vol just before the start of the reaction.
For antagonists testing, 10 μL of a reference agonist ([…]) instead of 10 μL buffer was added at a concentration corresponding to the EC80 (30 nM).
The compounds provided herein were tested in the histamine H3 in vitro assay. In one embodiment, the respective HCl salts of the compounds provided herein were prepared using standard chemical procedures and tested in the histamine H3 in vitro assay.
`NCc1ccc(-c2ccc3c(c2)nc2n3C3CCC2CN(C2CCC2)C3)cc1` (centres unmarked) [Compound 31, (4-(3-cyclobutyl-2,3,4,5-tetrahydro-1H-1,5-ethanobenzo[4,5]imidazo[1,2-d][1,4]diazepin-8-yl)phenyl)methanamine]: the IC50 is under 100 nM.

Staying with this assay, now noted: membranes of cells expressing human H3; GTPγ[35S] SPA; antagonist testing with reference agonist at EC80 (30 nM); in one embodiment HCl salts tested; read-out: Potency (functional potency as indicated by IC50).
Take `CC(=O)Nc1ccc(-c2ccc3c(c2)nc2n3C3CCC2CN(C2CCC2)C3)cc1` (centres unmarked) [Compound 27, N-(4-(3-cyclobutyl-2,3,4,5-tetrahydro-1H-1,5-ethanobenzo[4,5]imidazo[1,2-d][1,4]diazepin-8-yl)phenyl)acetamide]: the IC50 was under 100 nM.
Still for that read-out and setting: the figure for `c1cc2cc(-c3ccc4c(c3)nc3n4C4CCC3CN(C3CCC3)C4)ccc2[nH]1` (centres unmarked) [Compound 28, 3-cyclobutyl-8-(1H-indol-5-yl)-2,3,4,5-tetrahydro-1H-1,5-ethanobenzo[4,5]imidazo[1,2-d][1,4]diazepine] is over 1000 nM; for `c1coc(-c2ccc3c(c2)nc2n3C3CCC2CN(C2CCC2)C3)c1` (centres unmarked) [Compound 29, 3-cyclobutyl-8-(furan-2-yl)-2,3,4,5-tetrahydro-1H-1,5-ethanobenzo[4,5]imidazo[1,2-d][1,4]diazepine] it is under 1000 nM; for `c1cnc(-c2ccc3c(c2)nc2n3C3CCC2CN(C2CCC2)C3)cn1` (centres unmarked) [Compound 30, 3-cyclobutyl-8-(pyrazin-2-yl)-2,3,4,5-tetrahydro-1H-1,5-ethanobenzo[4,5]imidazo[1,2-d][1,4]diazepine] it is under 100 nM.
Same read-out and setting: the figure for `Clc1ccc2c(c1)nc1n2C2CC(C1)N(C1CCC1)C2` (centres unmarked) [Compound 32, 8-chloro-3-cyclobutyl-2,3,4,5-tetrahydro-1H-1,4-methanobenzo[4,5]imidazo[1,2-d][1,4]diazepine] is over 1000 nM; for `N#Cc1ccc(-c2ccc3c(c2)nc2n3C3CC(C2)N(C2CCC2)C3)cc1` (centres unmarked) [Compound 33, 4-(3-cyclobutyl-2,3,4,5-tetrahydro-1H-1,4-methanobenzo[4,5]imidazo[1,2-d][1,4]diazepin-8-yl)benzonitrile] it is under 1000 nM; for `c1cn2cc(-c3ccc4c(c3)nc3n4C4CC(C3)N(C3CCC3)C4)ccc2n1` (centres unmarked) [Compound 34, 3-cyclobutyl-8-(imidazo[1,2-a]pyridin-6-yl)-2,3,4,5-tetrahydro-1H-1,4-methanobenzo[4,5]imidazo[1,2-d][1,4]diazepine] it is under 1000 nM.
As to `Clc1ccc2c(c1)nc1n2CC2CC1CN2C1CCC1` (centres unmarked) [Compound 35, 8-chloro-3-cyclobutyl-2,3,4,5-tetrahydro-1H-2,5-methanobenzo[4,5]imidazo[1,2-d][1,4]diazepine], the IC50 was under 1000 nM.
Still for that read-out and setting: the figure for `N#Cc1ccc(-c2ccc3c(c2)nc2n3CC3CC2CN3C2CCC2)cc1` (centres unmarked) [Compound 36, 4-(3-cyclobutyl-2,3,4,5-tetrahydro-1H-2,5-methanobenzo[4,5]imidazo[1,2-d][1,4]diazepin-8-yl)benzonitrile] is under 1000 nM; for `c1cn2cc(-c3ccc4c(c3)nc3n4CC4CC3CN4C3CCC3)ccc2n1` (centres unmarked) [Compound 37, 3-cyclobutyl-8-(imidazo[1,2-a]pyridin-6-yl)-2,3,4,5-tetrahydro-1H-2,5-methanobenzo[4,5]imidazo[1,2-d][1,4]diazepine] it is over 1000 nM; for `c1ccc2c(c1)ncn2-c1ccc2c(c1)nc1n2CC2CC1CN2C1CCC1` (centres unmarked) [Compound 38, 8-(1H-benzo[d]imidazol-1-yl)-3-cyclobutyl-2,3,4,5-tetrahydro-1H-2,5-methanobenzo[4,5]imidazo[1,2-d][1,4]diazepine] it is under 1000 nM.
Still for that read-out and setting: then `c1cc2c(cc1CN1CCOCC1)nc1n2CC2CC1CN2C1CCC1` (centres unmarked) [Compound 39, 4-((3-cyclobutyl-2,3,4,5-tetrahydro-1H-2,5-methanobenzo[4,5]imidazo[1,2-d][1,7]diazepin-8-yl)methyl)morpholine], with over 1000 nM; and `CC1Cc2nc3cc(Br)ccc3n2CCN1C1CCC1` (centres unmarked) [Compound 40, 8-bromo-3-cyclobutyl-4-methyl-2,3,4,5-tetrahydro-1H-benzo[4,5]imidazo[1,2-d][1,4]diazepine], with under 100 nM.

Broadly, the IC50 is the point on the concentration scale where inhibition reaches its midpoint.
